The values below come from patent publication US9491962B2, “Use of chicoric acid and derivatives for regulating skin pigmentation” (Nestec S.A., priority 2010, dated 2016).

In one series the test system is HDF. The experiment in a line: Highest non cytotoxic concentration on HDF. In kind it is cell-based. The settings on record: mM. The source says:
(§1) We have tested two chicory extracts MS-55 (concentré MS-55 LEROUX) and MS-70 (pâte MS-70 LEROUX) and Chicoric acid.

Another series concerns filaggrin. Nature of the series: Synthesis of filaggrin by human epidermal keratinocytes (immunolabeling). In kind it is cell-based. To be noted: human primary epidermal keratinocytes, 144 hours. How it is done:
The potential beneficial effect of the Extracts of Example 1 towards skin barrier function and skin hydration was evaluated by using 2D culture of human primary epidermal keratinocytes and we assessed the synthesis of filaggrin Human epidermal keratinocytes were cultured in control keratinocytes-SFM medium, in a humidified chamber at 37° C. and containing 5% CO2. Cells were incubated with the selected ingredients or the test references (CaCl2 at 1.5 mM) for 144 hours. The production of filaggrin by was evaluated by immunolabeling.

The subject of a further series is B16 murine melanocytes. The experiment in a line: Production of melanin by B16 murine melanocyte cell line. In kind it is cell-based. The settings on record: for melanin production (result in words): B16 melanocytes, 72 hours, Kojic acid at 400 μg/mL. As to the method: In order to evaluate the potential beneficial effect of ingredients towards skin de- or pro-pigmentation we used 2D culture of murine melanocytes (B16) and we performed 2 tests: 1-assessment of melanin production and 2-assessment of tyrosinase production. B16 cells were cultured in DMEM 1 g/L glucose without phenol red supplemented with 10% foetal calf serum, in a humidified chamber at 37° C. and containing 5% CO2. Cells were incubated with the selected ingredients or the test references (Kojic acid at 400 μg/mL) for 72 hours, in the presence or absence of NDP-MSH an analog of MSH. The total quantity of melanin (extracellular and intracellular) was evaluated by measurement of the optical density at 405 nm of each sample against melanin standards in presence or in absence of NDP-MSH.

In the next series the test system is HPEK. The experiment in a line: Highest non cytotoxic concentration on HPEK. In kind it is cell-based, human. To be noted: mM. How it is done: as §1
The potential beneficial effect of the Extracts of Example 1 towards skin barrier function and skin hydration was evaluated by using 2D culture of human primary epidermal keratinocytes and we assessed the synthesis of filaggrin

SMILES strings stand for the structures.

Regarding `O=C(/C=C/c1ccc(O)c(O)c1)O[C@@H](C(=O)O)[C@@H](OC(=O)/C=C/c1ccc(O)c(O)c1)C(=O)O` [Chicoric acid], the “Highest non cytotoxic conc. on HDF” value in the series with HDF came out at 0.2 mM. Further, the “filaggrin synthesis (result in words)” value in the series with filaggrin is “increase of filaggrin”. Moreover, the “decrease of melanin production” value in the series on B16 murine melanocytes (B16 melanocytes treated for 72 hours, percentage relative to the control) is listed as 90%. Besides, in the series on B16 murine melanocytes, the “melanin production (result in words)” value is given as “decrease in vitro the synthesis of melanin”. Moreover, the “Highest non cytotoxic conc. on HPEK” value in the series with HPEK was 0.2 mM.

Regarding `O=c1cc(CO)occ1O` [Kojic acid, reference compound], the “melanin production (result in words)” value with B16 murine melanocytes is listed as “decrease in melanin production”.
